EC50 data for 23 molecules are collected here from patent US11098027B2, “Therapeutic heterocyclic compounds” (Gilead Sciences, Inc., priority 2018, dated 2021).

For the assay, the target named is T1, IDO1 (Homo sapiens, UniProt P14902).
T1 construct: HeLa cells were treated with a test compound in the presence of IFNγ, which induces IDO1 expression; host or cells: H1-HeLa cells, IDO1 induced with IFNγ
T1 sequence (P14902 whole entry): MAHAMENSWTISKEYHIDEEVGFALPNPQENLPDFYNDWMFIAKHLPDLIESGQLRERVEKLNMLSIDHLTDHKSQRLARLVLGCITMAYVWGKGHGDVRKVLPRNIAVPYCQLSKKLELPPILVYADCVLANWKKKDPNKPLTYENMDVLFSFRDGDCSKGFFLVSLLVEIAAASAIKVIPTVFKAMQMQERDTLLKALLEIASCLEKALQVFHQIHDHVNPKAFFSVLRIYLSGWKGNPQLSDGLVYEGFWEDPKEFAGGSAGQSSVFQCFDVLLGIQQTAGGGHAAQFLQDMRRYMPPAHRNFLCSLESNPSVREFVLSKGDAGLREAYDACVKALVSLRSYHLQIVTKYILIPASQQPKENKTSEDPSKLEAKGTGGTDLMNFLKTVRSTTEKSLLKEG
The experiment in a line: Cell-based (HeLa) assay for measurement of IDO1 inhibition (kynurenine levels in supernatant). Conditions: H1-HeLa cells, IDO1 induced with IFNγ, 48 hour incubation, kynurenine read by absorbance at 480 nm; geometric mean of a minimum of four determinations. The method, then: Example B-1. Cell-Based (HeLa) Assay for Measurement of IDO1 Inhibition
To measure IDO1 inhibition in tissue culture, HeLa cells were treated with a test compound in the presence of IFNγ, which induces IDO1 expression. Following incubation, cell supernatants were assayed for kynurenine levels, an indicator of IDO1 activity.
The following day, the test compounds were added in DMSO (0.5% final) at various concentrations, and IDO1 was inducibly expressed by the addition of 50 uL/well of 50 ng/mL of INFγ (Peprotech #300-02) in cell plating media. As a positive control, 50 uL of the cell plating media without IFNγ was added to several wells. Following a 48 hour incubation, the plates were spun down at 1,200 RPM for 5 min at 10° C. 65 μL/well of the supernatant was then transferred to new 384-well plates (Thermo #262160) that contained 10 uL/well of 30% TCA (Sigma # TO699), and the plates were sealed and incubated at 60° C. for 30 min. The plates were then centrifuged for 15 min at 2,000 RPM at 10° C. 40 μL/well of the supernatant was transferred to new 384-well plates (Thermo #262160) and was reacted with 40 μL/well of 2% (w/v) p-dimethlyaminobenzaldehyde (Sigma #156417) in glacial acetic acid (Sigma #A6283). The reaction was incubated at room temperature for 10 min and absorbance at 480 nm was read using a PerkinElmer Envision plate reader.
Data in Table 1 were normalized based on positive (−IFNγ) and negative (+IFNγ) controls and EC50 values were calculated from the fit of the dose—response curves to a four-parameter equation. All EC50 values represent geometric mean values of a minimum of four determinations. These assays generally produced results within 2-fold of the reported mean
`CC1(C)C(=O)N(c2cn[nH]c2)c2cccc(-c3ccc(C(F)(F)F)c(C(=O)Nc4ccc(F)cc4)c3)c21` [Example 18, 5-(3,3-dimethyl-2-oxo-1-(1H-pyrazol-4-yl)indolin-4-yl)-N-(4-fluorophenyl)-2-(trifluoromethyl)benzamide] yielded an EC50 of 16 nM. With `CC1(C)C(=O)N(c2ccncn2)c2cccc(-c3ccc(C(F)(F)F)c(C(=O)Nc4ccc(F)cc4)c3)c21` [Example 3, 5-(3,3-dimethyl-2-oxo-1-(pyrimidin-4-yl)indolin-4-yl)-N-(4-fluorophenyl)-2-(trifluoromethyl)benzamide] the figure was 11 nM; with `CC1(C)C(=O)N(c2ncccn2)c2cccc(-c3ccc(C(F)(F)F)c(C(=O)Nc4ccnnc4)c3)c21` [Example 46, 5-(3,3-dimethyl-2-oxo-1-(pyrimidin-2-yl)indolin-4-yl)-N-(pyridazin-4-yl)-2-(trifluoromethyl)benzamide], 283 nM. For `CC1(C)C(=O)N(c2ncccn2)c2cccc(-c3cnc(C(F)(F)F)c(C(=O)Nc4ccc(F)cc4)c3)c21` [Example 35, 5-(3,3-dimethyl-2-oxo-1-(pyrimidin-2-yl)indolin-4-yl)-N-(4-fluorophenyl)-2-(trifluoromethyl)nicotinamide], the EC50 was 17 nM. Take `Cc1ccc(-c2cccc3c2C(C)(C)C(=O)N3c2ncccn2)nc1C(=O)Nc1ccc(F)cc1` [Example 41, 6-(3,3-dimethyl-2-oxo-1-(pyrimidin-2-yl)indolin-4-yl)-N-(4-fluorophenyl)-3-methylpicolinamide]: a half-maximal effect (EC50) was put at 424 nM. The result for `CC1(C)Oc2c(-c3ccc(C(F)(F)F)c(C(=O)Nc4ccc(F)cc4)c3)cccc2N(c2ncccn2)C1=O` [Example 54, 5-(2,2-dimethyl-3-oxo-4-(pyrimidin-2-yl)-3,4-dihydro-2H-benzo[b][1,4]oxazin-8-yl)-N-(4-fluorophenyl)-2-(trifluoromethyl)benzamide] reads 1340 nM; that for `CC1(C)C(=O)N(c2ncccn2)c2cccc(-c3ccc(C(F)(F)F)c(C(=O)Nc4ccc(F)cc4)n3)c21` [Example 44], 113 nM; that for `CC1(C)C(=O)N(c2ccncc2)c2cccc(-c3ccc(C(F)(F)F)c(C(=O)Nc4ccc(F)cc4)c3)c21` [Example 8, 5-(3,3-dimethyl-2-oxo-1-(pyridin-4-yl)indolin-4-yl)-N-(4-fluorophenyl)-2-(trifluoromethyl)benzamide], 24 nM. In turn, `CC1(C)Oc2c(-c3ccc(C(F)(F)F)c(C(=O)Nc4ccc(F)cc4)c3)cccc2N(c2cnccn2)C1=O` [Example 55, 5-(2,2-dimethyl-3-oxo-4-(pyrazin-2-yl)-3,4-dihydro-2H-benzo[b][1,4]-oxazin-8-yl)-N-(4-fluorophenyl)-2-(trifluoromethyl)benzamide] registered an EC50 of 101 nM. The result for `Cn1cc(N2C(=O)C(C)(C)c3c(-c4ccc(C(F)(F)F)c(C(=O)Nc5ccc(F)cc5)c4)cccc32)cn1` [Example 23, 5-(3,3-dimethyl-1-(1-methyl-1H-pyrazol-4-yl)-2-oxoindolin-4-yl)-N-(4-fluorophenyl)-2-(trifluoromethyl)benzamide] reads 311 nM; that for `CC1(C)C(=O)N(c2cccnc2)c2nccc(-c3ccc(C(F)(F)F)c(C(=O)Nc4ccc(C#N)cn4)c3)c21` [Example 19, N-(5-cyanopyridin-2-yl)-5-(3,3-dimethyl-2-oxo-1-(pyridin-3-yl)-2,3-dihydro-1H-pyrrolo[2,3-b]pyridin-4-yl)-2-(trifluoromethyl)benzamide], 33 nM; that for `Cc1ncc(-c2cccc3c2C(C)(C)C(=O)N3c2ncccn2)cc1C(=O)Nc1ccc(F)cc1` [Example 14, 5-(3,3-dimethyl-2-oxo-1-(pyrimidin-2-yl)indolin-4-yl)-N-(4-fluorophenyl)-2-methylnicotinamide], 105 nM. The molecule `CC1(C)C(=O)N(c2ncccn2)c2cccc(-c3ccc(C(F)(F)F)c(C(=O)Nc4ccncn4)c3)c21` [Example 48, 5-(3,3-dimethyl-2-oxo-1-(pyrimidin-2-yl)indolin-4-yl)-N-(pyrimidin-4-yl)-2-(trifluoromethyl)benzamide] showed an EC50 of 73 nM. In turn, `CC1(C)C(=O)N(c2cccnc2)c2cccc(-c3cnc(C(F)(F)F)c(C(=O)Nc4ccccc4)c3)c21` [Example 58, 5-(3,3-dimethyl-2-oxo-1-(pyridin-3-yl)indolin-4-yl)-N-phenyl-2-(trifluoromethyl)nicotinamide] came in with an EC50 of 53 nM.

`Cc1ncc(-c2cccc3c2C(C)(C)C(=O)N3c2cnccn2)cc1C(=O)Nc1ccc(F)cc1` [Example 15, 5-(3,3-dimethyl-2-oxo-1-(pyrazin-2-yl)indolin-4-yl)-N-(4-fluorophenyl)-2-methylnicotinamide] yielded an EC50 of 522 nM. In turn, `Cc1ccc(-c2cccc3c2C(C)(C)C(=O)N3Cc2ncccn2)cc1C(=O)Nc1ccc(F)cc1` [Example 53, 5-(3,3-dimethyl-2-oxo-1-(pyrimidin-2-ylmethyl)indolin-4-yl)-N-(4-fluorophenyl)-2-methylbenzamide] showed an EC50 of 1020 nM. The result for `CC1(C)Oc2c(-c3ccc(C(F)(F)F)c(C(=O)Nc4ccc(F)cc4)c3)cccc2N(c2ccccn2)C1=O` [Example 52, 5-(2,2-dimethyl-3-oxo-4-(pyridin-2-yl)-3,4-dihydro-2H-benzo[b][1,4]oxazin-8-yl)-N-(4-fluorophenyl)-2-(trifluoromethyl)benzamide] reads 491 nM. In the case of `CC1(C)C(=O)N(c2cnccn2)c2cccc(-c3ccc(C(F)(F)F)c(C(=O)Nc4ccc(F)cc4)c3)c21` [Example 4, 5-(3,3-dimethyl-2-oxo-1-(pyrazin-2-yl)indolin-4-yl)-N-(4-fluorophenyl)-2-(trifluoromethyl)benzamide], the response was half-maximal at 11 nM (EC50). `CC1(C)C(=O)N(c2ncccn2)c2cccc(-c3ccc(C(F)(F)F)c(C(=O)Nc4ccc(F)c(Br)c4)c3)c21` [Example 31, N-(3-bromo-4-fluorophenyl)-5-(3,3-dimethyl-2-oxo-1-(pyrimidin-2-yl)indolin-4-yl)-2-(trifluoromethyl)benzamide] had an EC50 of 57 nM. As to `CC1(C)C(=O)N(c2ccncn2)c2cccc(-c3cnc(C(F)(F)F)c(C(=O)Nc4ccc(F)cc4)c3)c21` [Example 49, 5-(3,3-dimethyl-2-oxo-1-(pyrimidin-4-yl)indolin-4-yl)-N-(4-fluorophenyl)-2-(trifluoromethyl)nicotinamide], the EC50 came to 33 nM. `Cc1ccc(-c2cccc3c2C(C)(C)C(=O)N3c2ncccn2)cc1C(=O)Nc1ccc(F)cc1` [Example 9, 5-(3,3-dimethyl-2-oxo-1-(pyrimidin-2-yl)indolin-4-yl)-N-(4-fluorophenyl)-2-methylbenzamide] displayed an EC50 of 33 nM.

Consider `CC1(C)C(=O)N(c2ncccn2)c2cccc(-c3ccc(C(F)(F)F)c(C(=O)Nc4cccnc4)c3)c21` [Example 21, 5-(3,3-dimethyl-2-oxo-1-(pyrimidin-2-yl)indolin-4-yl)-N-(pyridin-3-yl)-2-(trifluoromethyl)benzamide], for which the EC50 amounted to 98 nM.

The molecule `Cc1ncc(-c2cccc3c2C(C)(C)C(=O)N3c2ccccn2)cc1C(=O)Nc1ccc(F)cc1` [Example 12, 5-(3,3-dimethyl-2-oxo-1-(pyridin-2-yl)indolin-4-yl)-N-(4-fluorophenyl)-2-methylnicotinamide] showed an EC50 of 66 nM.
